Like-named read-outs stand apart in the source and are kept apart here.
How the values were obtained:
Assay type in all cases: cell-based
NF-κB = assay: Immunological activity test: inhibition of NF-κB activity; conditions: initial concentration of 30 μM; a/b isomers given as first/second symbol; read-out: IC50 (μM), inhibitory activity against NF-κB
Description: Main references for immunological activity test of the compounds of the present application includes: Vogl, S.; Atanasov, A. G.; Binder, M.; Bulusu, M.; Zehl, M.; Fakhrudin, N.; Heiss, E. H.; Picker, P.; Wawrosch, C.; Saukel, J.; Reznicek, G.; Urban, E.; Bochkov, V.; Dirsch, V. M.; Kopp, B. J. Evid-Based Complementary Alern. Med. 2013, ID 395316. Commercially available parthenolide was utilized as a positive control.
The ability of the compounds of the present application to inhibit NF-κB activity was tested at an initial concentration of 30 μM.
The assay data for the compounds of the present application were further analyzed to determine their IC50 values.

[1] = system: mouse macrophages (RAW264.7); assay: Lipopolysaccharide-induced NO secretion in macrophages (Griess); conditions: RAW264.7, LPS 1 μg/ml, a/b isomers given as first/second symbol, read-out: IC50 (μM), inhibition of lipopolysaccharide-induced NO secretion in macrophages
Method in brief: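 Indomethacin and resveratrol served as positive controls while compounds were tested across concentrations on LPS-stimulated (1 μg/ml, 24 h) RAW264.7 cells. NO output was quantified colorimetrically (Griess, 548 nm).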

BHK-21 cells = assay: Anti-fibrosis activity test: inhibition of BHK-21 cell proliferation (CCK-8); conditions: Mesocricetus auratus, BHK-21, 48 h, CCK-8, 48 hours after administration
Method in brief: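 Read-out: CCK-8 absorbance at 450 nm after 2 h, giving proliferation inhibition (1−Ai/Ao)×100% versus blank control, from which IC50 was derived. Cells had been treated with compounds for 48 h after 24 h adherence at 37° C. Pirfenidone served as positive control.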

[2] = system: human hepatic stellate cells LX-2; assay: Anti-fibrosis activity test: inhibition of proliferation of human hepatic stellate cells LX-2 (CCK-8); conditions: Homo sapiens, 48 h, human hepatic stellate cells LX-2, CCK-8, 48 hours
Method in brief: (§1)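 Using CCK-8 colorimetry (450 nm), the study assessed growth inhibition after 48 h compound exposure; plating density was 2×10^4 cells/mL with 24 h attachment beforehand. IC50 was calculated from (1−Ai/Ao)×100%.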

[3] = system: cardiac fibroblast RAT-iCell-C002; assay: Anti-fibrosis activity test: inhibition of proliferation of cardiac fibroblast RAT-iCell-C002 (CCK-8); conditions: Cardiac fibroblast, 48 h, cardiac fibroblast RAT-iCell-C002, CCK-8, 48 hours
Method in brief: as §1

[4] = system: human embryonic lung fibroblast IMR-90; assay: Anti-fibrosis activity test: inhibition of proliferation of human embryonic lung fibroblast IMR-90 (CCK-8); conditions: human embryonic lung fibroblast IMR-90, CCK-8, 48 hours
Method in brief: as §1

[5] = system: human dermal fibroblasts CCC-ESF-1; assay: Anti-fibrosis activity test: inhibition of proliferation of human dermal fibroblasts CCC-ESF-1 (CCK-8); conditions: Fibroblast; human dermal fibroblasts CCC-ESF-1, CCK-8, 48 hours
Method in brief: as §1

[6] = system: human fibrosarcoma cells HT-1080; assay: Anti-fibrosis activity test: inhibition of proliferation of human fibrosarcoma cells HT-1080 (CCK-8); conditions: Homo sapiens, HT-1080, 48 h, human fibrosarcoma cells HT-1080, CCK-8, 48 hours
Method in brief: as §1

[7] = system: human lung fibroblasts HFL1; assay: Anti-fibrosis activity test: inhibition of proliferation of human lung fibroblasts HFL1 (CCK-8); conditions: Homo sapiens, HFL1, 48 h, human lung fibroblasts HFL1, CCK-8, 48 hours
Method in brief: as §1

SMILES	IC50 (NF-κB) [µM]	IC50 ([1]; Mus musculus, RAW264.7, 24 h) [µM]	IC50 [6] [mM]	IC50 ([1]; 24 hours) [µM]	IC50 (BHK-21 cells) [mM]	IC50 [2] [mM]	IC50 [3] [mM]	IC50 [4] [mM]	IC50 [5] [mM]	IC50 [7] [mM]
O=C1c2c(nc3ccccc3c2OCc2ccc(-c3ccccc3)cc2)-c2cccn21 [Compound 649b, 9-([1,1′-biphenyl]-4-ylmethoxy)-10H-pyrrolizino[1,2-b]quinolin-10-one]	10 to 50	10 to 50	0.05 to 5		0.05 to 5	0.05 to 5	0.05 to 5	0.05 to 5	0.05 to 5	0.05 to 5
N#Cc1c(N2CCNCC2)ccc2c(=O)c3c(n(Cc4ccc(F)cc4)c12)-c1cccn1C3=O [Compound 486a, 4-(4-Fluorobenzyl)-9,10-dioxo-6-(piperazin-1-yl)-4,10-dihydro-9H-pyrrolizino[1,2-b]quinoline-5-carbonitrile]	10 to 50			0.1 to 1						
CC(C)Oc1c2c(nc3ccccc13)-c1cccn1C2=O [Compound 5b, 9-isopropoxy-10H-pyrrolizino[1,2-b]quinolin-10-one]	10 to 50		5 to 20		0.05 to 5	5 to 20	0.05 to 5	0.05 to 5	0.05 to 5	0.05 to 5
N#Cc1ccc(COc2c3c(nc4ccc(F)cc24)-c2cccn2C3=O)cc1 [Compound 619b, 4-(((7-fluoro-10-oxo-10H-pyrrolizino[1,2-b]quinolin-9-yl)oxy)methyl)benzonitrile]	1 to 10		0.05 to 5		0.05 to 5	0.05 to 5	0.05 to 5	0.05 to 5	< 0.05	0.05 to 5
N#Cc1ccc2c(c1)c(=O)c1c(n2Cc2ccc(C(F)(F)F)cc2)-c2cccn2C1=O [Compound 627a, 9,10-Dioxo-4-(4-(trifluoromethyl)benzyl)-4,10-dihydro-9H-pyrrolizino[1,2-b]quinoline-7-carbonitrile]	1 to 10		0.05 to 5		< 0.05	0.05 to 5	0.05 to 5	0.05 to 5	0.05 to 5	0.05 to 5
N#Cc1ccc2c(c1)c(=O)c1c(n2Cc2ccc(Cl)cc2)-c2cccn2C1=O [Compound 625a, 4-(4-Chlorobenzyl)-9,10-dioxo-4,10-dihydro-9H-pyrrolizino[1,2-b]quinoline-7-carbonitrile]	1 to 10		0.05 to 5		0.05 to 5	0.05 to 5	0.05 to 5	0.05 to 5	0.05 to 5	0.05 to 5
N#Cc1c(N2CCNCC2)ccc2c(OCc3ccc(F)cc3)c3c(nc12)-c1cccn1C3=O [Compound 486b, 9-((4-fluorobenzyl)oxy)-10-oxo-6-(piperazin-1-yl)-10H-pyrrolizino[1,2-b]quinoline-5-carbonitrile]	1 to 10			1 to 10						
CC(C)=CCOc1c2c(nc3ccccc13)-c1cccn1C2=O [Compound 9b, 9-((3-methylbut-2-en-1-yl)oxy)-10H-pyrrolizino[1,2-b]quinolin-10-one]	1 to 10		0.05 to 5		5 to 20	0.05 to 5	0.05 to 5	0.05 to 5	5 to 20	0.05 to 5
O=C1c2c(nc3ccc(F)cc3c2OCc2cc(C(F)(F)F)cc(C(F)(F)F)c2)-c2cccn21 [Compound 623b, 9-((3,5-bis(trifluoromethyl)benzyl)oxy)-7-fluoro-10H-pyrrolizino[1,2-b]quinolin-10-one]	1 to 10		0.05 to 5		0.05 to 5	0.05 to 5	0.05 to 5	0.05 to 5	0.05 to 5	0.05 to 5

Second part, led by results:

IC50 (NF-κB) [µM]	IC50 ([1]; Mus musculus, RAW264.7, 24 h) [µM]	IC50 [6] [mM]	IC50 ([1]; 24 hours) [µM]	SMILES	IC50 (BHK-21 cells) [mM]	IC50 [2] [mM]	IC50 [3] [mM]	IC50 [4] [mM]	IC50 [5] [mM]	IC50 [7] [mM]
1 to 10	1 to 10	0.05 to 5		O=C1c2c(n(Cc3ccc(Cl)cc3F)c3ccccc3c2=O)-c2cccn21 [Compound 602a, 4-(4-Chloro-2-fluorobenzyl)-9H-pyrrolizino[1,2-b]quinoline-9,10(4H)-dione]	0.05 to 5	0.05 to 5	0.05 to 5	0.05 to 5	0.05 to 5	0.05 to 5
1 to 10		0.05 to 5		O=C1c2c(n(Cc3ccc(Cl)cc3F)c3ccc(F)cc3c2=O)-c2cccn21 [Compound 621a, 4-(4-Chloro-2-fluorobenzyl)-7-fluoro-9H-pyrrolizino[1,2-b]quinoline-9,10(4H)-dione]	0.05 to 5	0.05 to 5	0.05 to 5	0.05 to 5	0.05 to 5	0.05 to 5
0.1 to 1		0.05 to 5		N#Cc1ccc2c(c1)c(=O)c1c(n2Cc2ccc(F)cc2)-c2cccn2C1=O [Compound 624a, 4-(4-Fluorobenzyl)-9,10-dioxo-4,10-dihydro-9H-pyrrolizino[1,2-b]quinoline-7-carbonitrile]	< 0.05	5 to 20	0.05 to 5	0.05 to 5	0.05 to 5	< 0.05
1 to 10			1 to 10	O=C1c2c(nc3ccccc3c2OCc2ccc(-c3ccccc3)cc2)-c2cccn21 [Compound 674b]						
1 to 10		0.05 to 5		O=C1c2c(nc3cc(C(F)(F)F)ccc3c2OCc2cccc(Cl)c2)-c2cccn21 [Compound 545b, 9-((3-chlorobenzyl)oxy)-6-(trifluoromethyl)-10H-pyrrolizino[1,2-b]quinolin-10-one]	0.05 to 5	0.05 to 5	0.05 to 5	0.05 to 5	0.05 to 5	0.05 to 5
1 to 10		0.05 to 5		O=C1c2c(nc3ccccc3c2Oc2ccc(Br)cc2)-c2cccn21 [Compound 64b, 9-(4-bromophenoxy)-10H-pyrrolizino[1,2-b]quinolin-10-one]	0.05 to 5	0.05 to 5	0.05 to 5	0.05 to 5	0.05 to 5	0.05 to 5
1 to 10		0.05 to 5		O=C1c2c(nc3ccc(F)cc3c2OCc2ccc(F)cc2)-c2cccn21 [Compound 617b, 7-fluoro-9-((4-fluorobenzyl)oxy)-10H-pyrrolizino[1,2-b]quinolin-10-one]	0.05 to 5	0.05 to 5	0.05 to 5	0.05 to 5	0.05 to 5	0.05 to 5
1 to 10		0.05 to 5		N#Cc1ccc(Cn2c3c(c(=O)c4cc(F)ccc42)C(=O)n2cccc2-3)cc1 [Compound 619a, 4-((7-Fluoro-9,10-dioxo-9H-pyrrolizino[1,2-b]quinolin-4(10H)-yl)methyl)benzonitrile]	0.05 to 5	0.05 to 5	0.05 to 5	0.05 to 5	< 0.05	0.05 to 5
1 to 10		0.05 to 5		N#Cc1ccc2nc3c(c(OCc4ccc(F)cc4)c2c1)C(=O)n1cccc1-3 [Compound 624b, 9-((4-fluorobenzyl)oxy)-10-oxo-10H-pyrrolizino[1,2-b]quinoline-7-carbonitrile]	0.05 to 5	5 to 20	0.05 to 5	0.05 to 5	0.05 to 5	< 0.05
1 to 10		0.05 to 5		O=C1c2c(n(Cc3cc(C(F)(F)F)cc(C(F)(F)F)c3)c3cc(N4CCNCC4)ccc3c2=O)-c2cccn21 [Compound 631a, 4-(3,5-Bis(trifluoromethyl)benzyl)-6-(piperazin-1-yl)-9H-pyrrolizino[1,2-b]quinoline-9,10(4H)-dione]	0.05 to 5	0.05 to 5	0.05 to 5	0.05 to 5	0.05 to 5	0.05 to 5
